Test system: mycolic acid biosynthesis
Test: spectrophotometric assay of mycolic acid (carbol fuchsin complex) from treated M. smegmatis cells
Format: cell-based, Mycobacterium smegmatis
Conditions: for production/synthesis of mycolic acid: Mycobacterium smegmatis treated with the substance, result in words; for absorbance at 495.89 nm: mycolic acid-carbol fuchsin complex in hexane, M. smegmatis grown 48 hrs at sub-lethal concentration (½ MIC): extract 312 μg/ml, thebaine 150 μg/ml, isoniazid 1 μg/ml, untreated control 1.4885
From the text: Mycolic acids are branched, β-hydroxy fatty acids which occur in the cell wall of Corynebacterium, Nocardia and Mycobacterium. Their molecular size varies with the genus, i.e., from 30, 50, 80-carbon atoms in the order described above. Because of the correlation between genus and mycolic acid size, the test for this biochemical marker is done in the early stage of the identification of unknown actinomycetes. The method followed in this invention for the extraction of mycolic acid is according to Minniken et al. (1975). After proper growth of the bacteria, the culture is centrifuged at 5000 RPM for 5 minutes and lyophilized. Dry bacteria (100 mg) are mixed with methanol (5 ml), Toluene (5 ml) and concentrated sulphuric acid (0.2 ml) in a 20-ml screw cap tube (poly tetra fluoro ethylene lined). The contents of the tube are mixed thoroughly and methanolysis is allowed to proceed for 12-16 hours at 75° C. (stationary incubation). The reaction mixture is allowed to cool and mycolic acid is extracted by adding 1 ml of hexane. After vigorous mixing the mixture is allowed to settle and the upper hexane layer containing mycolic acid is collected. Samples of the hexane extract were spotted on TLC coated with Merck silica gel H (0.5 mm), along with standard mycolic acid and the chromatogram is developed in petroleum ether: diethyl ether (85:15).
By using this method the mycolic acid produced by the control was quantified as well as treated cells of M. smegmatis with different plant extracts and compounds. Some of the compounds are known to inhibit mycolic acid biosynthesis and others are plant extracts and unknown compounds. The compounds and the extracts were selected on the basis of loosening of acid fast stain in Mycobacterium smegmatis.
The culture of Mycobacterium smegmatis was frown in nutrient broth containing the sub-lethal concentration (½ MIC) of the compounds/extracts for 48 hrs. The cells were harvested by centrifugation and the pellets were lyophilized. Equal amount of the cells (100 mg) were taken both of control and treated cells and kept for methanolysis overnight as described in Example 1. The extracted hexane layer was allowed to dry and a common stock (5 mg/ml) was used to run a TLC plate to determine how much the inhibition of mycolic acid by calculation the amount of produced mycolic acid by a densitometer.
Compounds, which were showing loosening of acid fast staining, were also tested for spectrophotometric assay. The strain of Mycobacterium smegmatis giving 100% acid fast staining was grown for 48 hours in 50 ml culture media. As described earlier treatment of different compounds were given at sub-lethal concentrations in replicates were also grown for 48 hours. […]
The details of the treatments and the absorbance by different treatments are described in Table 2.

NNC(=O)c1ccncc1 [Isoniazid]
production/synthesis of mycolic acid: does not allow the production of mycolic acid | absorbance at 495.89 nm: 0

COC1=CC=C2[C@H]3Cc4ccc(OC)c5c4[C@@]2(CCN3C)[C@H]1O5 [Thebaine]
production/synthesis of mycolic acid: do not allow the synthesis of mycolic acid | absorbance at 495.89 nm: 0

— patent US6833249B2, “Quick and sensitive method of quantifying mycolic acid to develop anti-microbial agents and a diagnostic kit thereof” (Council of Scientific and Industrial Research, priority 2002, dated 2004)
